Patent publication US4897382A, “Organic amide compounds derived from nitrogenous lipids” (priority 1981, dated 1990)
“Also recorded” adds a separate entry of the source. Where two headings read alike, the source gives them in different places.

Key:
[1] = Anticonvulsant effects in rat (isoniazide convulsions); assay type: in vivo
Experimental: The in vivo activity of Product 1 was measured by the method described by Costa et al (E. Costa, A. Guidotti and C. C. Mao; "Evidence for involvement of GABA in the Action of Benzodiazepines: Studies in Rat Cerebellum" in Mechanism of Action of Benzodiazepines; Ed. by E. Costa and P. Greengard, New York, Raven Press. pp. 113-130 (1975)) and by Loescher and Frey (Loesher, W. and Frey, H. H.; "Effect of convulsant and anticonvulsant agents on level and metabolism of gamma-aminobutyric acid in mouse brain"; Naunyn-Schmiedeberg's Arch. Pharmacol. 296, 263-269 (1977)). These tests are based on the known activity of isoniazide to cause convulsions and a lowering of the GABA cerebral levels and the glutamic-decarboxylase enzyme activity.

prolactin [2] = experiment: Hypoprolactinemic effect in rats, serum prolactin by RIA, sulpiride-treated (hyperprolactinemic) animals; details: for inhibition in vivo at 0.5 mg/kg / inhibition in vivo at 5 mg/kg: Rattus norvegicus; for inhibition in vivo at 0.5 mg/kg: read-out: Prolactin Inhibition %, sulpiride 10 γ/kg + 0.5 mg/kg test substance; for inhibition in vivo at 5 mg/kg: read-out: Prolactin Inhibition %, sulpiride 10 γ/kg + 5.0 mg/kg test substance
dopamine receptors = biological target: T1, dopamine receptors (Rattus norvegicus, UniProt P61169); experiment: Binding of (^3H)-spiroperidole to hypophysis membranes of rat; details: for binding power / in vitro activity, in words: compared to the parent acid or lipid alone; for activity at 1 µM: test substance 10^-6 M; for activity at 0.1 µM: test substance 10^-7 M
T1 construct: on hypophysis sinaptosomal rat membranes; from tissue; host or cells: rat hypophysis (pituitary), synaptosomal membranes
Experimental: The in vitro biological activity was determined by comparative tests measuring the binding power of the labelled spiroperidole (^3 H)-spiroperidole on hypophysis sinaptosomal rat membranes according to the method described by Greese et al (GREESE I., SCHNEIDER R. and SNYDER S. H.; H-spiroperidole labels dopamine receptors in pituitary and brain; Europ. J. Pharmacol. 46, 377-381 (1977)).

prolactin [3] = experiment: Hypoprolactinemic effect in rats, serum prolactin by RIA, at the circadian peak at 4 p.m.; details: for inhibition in vivo at 0.5 mg/kg / inhibition in vivo at 5 mg/kg: Rattus norvegicus; for in vivo (hypoprolactinemic) activity, in words: rats, summary statement
[4] = General pharmacological activity in vitro and in vivo; details: tested in vitro and in vivo in laboratory animals
[5] = system: synaptic membranes of the rat cortex; experiment: Binding of ^3H-GABA on synaptic membranes of the rat cortex (method of Enna and Snyder); details: for Product bound % (^3H-GABA binding on rat cortex membranes): ^3H-GABA 2.10^-8 M
Description: Table I presents the results of these tests, expressed in percentage of the fixed active product, comparing the in vitro activity of Product 1 with the activities of the individual components which comprise Product 1.

[6] = isoniazide 160 mg/kg (s.c.) alone
[7] = sulpiride 10 γ/kg + 0.5 mg/kg test substance
[8] = sulpiride 10 γ/kg + 5.0 mg/kg test substance
[9] = read-out: Product bound % ((^3H) spiroperidole binding to hypophysis membranes), (^3H) spiroperidole 2.10^-9 M (2 nM), test substance 10^-4 M
[10] = read-out: Product bound % ((^3H) spiroperidole binding to hypophysis membranes), (^3H) spiroperidole 2.10^-9 M (2 nM), test substance 10^-5 M
[11] = read-out: Product bound % ((^3H) spiroperidole binding to hypophysis membranes), (^3H) spiroperidole 2.10^-9 M (2 nM)
[12] = 0.5 mg/kg, circadian peak at 4 p.m.
[13] = 5.0 mg/kg, circadian peak at 4 p.m.
[14] = read-out: Prolactin Inhibition %, 0.5 mg/kg, circadian peak at 4 p.m.
[15] = read-out: Prolactin Inhibition %, 5.0 mg/kg, circadian peak at 4 p.m.
[16] = (^3H) spiroperidole 2.10^-9 M (2 nM), test substance 10^-4 M, read-out: Product bound % ((^3H) spiroperidole binding to hypophysis membranes)
[17] = (^3H) spiroperidole 2.10^-9 M (2 nM), test substance 10^-5 M, read-out: Product bound % ((^3H) spiroperidole binding to hypophysis membranes)
[18] = (^3H) spiroperidole 2.10^-9 M (2 nM), read-out: Product bound % ((^3H) spiroperidole binding to hypophysis membranes)
[19] = read-out: Prolactin Inhibition %
[20] = isoniazide 160 mg/kg (s.c.) + sphingosine 12 mg/kg (i.p.)

T1 sequence (P61169 whole entry): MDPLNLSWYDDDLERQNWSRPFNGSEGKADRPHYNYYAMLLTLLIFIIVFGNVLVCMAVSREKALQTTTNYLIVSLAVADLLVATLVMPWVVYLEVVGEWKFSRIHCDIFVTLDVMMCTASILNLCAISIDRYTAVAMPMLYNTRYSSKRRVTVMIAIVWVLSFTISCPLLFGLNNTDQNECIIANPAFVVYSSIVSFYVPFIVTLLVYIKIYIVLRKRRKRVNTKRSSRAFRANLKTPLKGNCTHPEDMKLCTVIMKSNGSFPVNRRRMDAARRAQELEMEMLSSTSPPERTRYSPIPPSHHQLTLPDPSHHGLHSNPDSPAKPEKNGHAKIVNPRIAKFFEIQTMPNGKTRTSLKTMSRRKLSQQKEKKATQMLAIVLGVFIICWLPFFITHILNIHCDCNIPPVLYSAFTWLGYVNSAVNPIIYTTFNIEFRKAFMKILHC

Row | SMILES | inhibition in vivo at 0.5 mg/kg (prolactin [2]) [%] | inhibition in vivo at 5 mg/kg (prolactin [2]) [%] | Prolactin (prolactin [2]; [7]) [ng/mL] | Prolactin (prolactin [2]; [8]) [ng/mL] | binding power / in vitro activity, in words (dopamine receptors) | activity at 100 µM (dopamine receptors; [9]) [%] | activity at 10 µM (dopamine receptors; [10]) [%] | activity at 1 µM (dopamine receptors; [11]) [%] | activity at 0.1 µM (dopamine receptors; [11]) [%] | Prolactin (prolactin [3]; [12]) [ng/mL] | Prolactin (prolactin [3]; [13]) [ng/mL] | inhibition in vivo at 0.5 mg/kg (prolactin [3]; [14]) [%] | inhibition in vivo at 5 mg/kg (prolactin [3]; [15]) [%] | in vivo (hypoprolactinemic) activity, in words (prolactin [3]) | further results
1 | NNC(=O)c1ccncc1 [Isoniazide, isoniazide] |  |  |  |  |  |  |  |  |  |  |  |  |  |  | Latency of the convulsions measured [1, 6]: 3070 ± 110 s; Number of animals in convulsions [1, 6]: 26/30; Number of dead animals [1, 6]: 15
2 | CCCCCCCCCCCCCC=CC(O)C(CO)NC(=O)[C@@H]1C=C2c3cccc4[nH]cc(c34)C[C@H]2N(C)C1 (some centres unmarked) [Product 2.2, Lysergylsphingosine-amide] | 32 | 44 | 59.0 ± 6.0 | 49.0 ± 5.0 | far superior to either lysergic acid or sphingosine alone | 35 | 55 | 85 | 100 | 48.0 ± 4.8 | 40.0 ± 2.6 | 27 | 39 | far superior to either lysergic acid or sphingosine alone | 
3 | CCCCCCCCCCCCCC=CC(O)C(CO)NC(=O)C1CC2c3cccc4[nH]cc(c34)CC2N(C)C1 (centres unmarked) [Product 3, Dihydrolysergylsphingosine amide] | 30 | 60 | 53.7 ± 8.5 | 31.2 ± 2.5 | significant and far superior, under the same experimental conditions, to that of dihydrolysergic acid or sphingosine alone | 10 | 40 | 90 | 100 | 38.7 ± 4.7 | 32.2 ± 5.7 | 42 | 52 | significant biological activity | action in the central nervous system, in words [4]: capable of acting directly in the central nervous system
4 | CCCCCCCCCCCCCCCC(O)C(CO)NC(=O)C1CC2c3cccc4[nH]cc(c34)CC2N(C)C1 (centres unmarked) [Product 15, Dihydrolysergyldihydrosphingosine amide] | 44 | 55 | 48.0 ± 4.0 | 39.0 ± 6.0 | far superior to either dihydrolysergic acid or dihydrosphingosine alone | 20 | 30 | 90 | 100 | 40.0 ± 5.6 | 31.0 ± 3.4 | 35 | 50 | far superior to either dihydrolysergic acid or dihydrosphingosine alone | action in the central nervous system, in words [4]: capable of acting directly in the central nervous system
5 | CCCCCCCCCCCCCC=CC(O)C(COC1OC(CO)C(O)C(O)C1O)NC(=O)C1CC2c3cccc4[nH]cc(c34)CC2N(C)C1 (centres unmarked) [Product 16, Dihydrolysergylpsychosine amide] | 37 | 52 | 51.0 ± 7.0 | 39.0 ± 4.0 | far superior to either dihydrolysergic acid or psychosine alone | 25 | 45 | 80 | 100 | 40.0 ± 7.0 | 31.0 ± 6.0 | 31 | 47 | far superior to either dihydrolysergic acid or psychosine alone | action in the central nervous system, in words [4]: capable of acting directly in the central nervous system
6 | CN1C[C@H](C(=O)O)CC2c3cccc4[nH]cc(c34)C[C@H]21 (some centres unmarked) [dihydrolysergic acid] | 0 |  |  |  |  | 45 | 95 | 100 | 100 |  |  | 0 | 25 | weak effect; also recorded: essentially inactive when administered alone | Product bound % ((^3H) spiroperidole binding to hypophysis membranes) (dopamine receptors; (^3H) spiroperidole 2.10^-9 M (2 nM), test substance 10^-4 M, 100 µM): 60%; Product bound % ((^3H) spiroperidole binding to hypophysis membranes) (dopamine receptors; (^3H) spiroperidole 2.10^-9 M (2 nM), test substance 10^-5 M, 10 µM): 90%
7 | CCCCCCCCCCCCCCCC(O)C(N)CO (centres unmarked) [dihydrosphingosine] |  |  | 81.0 ± 11.0 | 74.0 ± 6.0 |  |  |  |  |  | 66.0 ± 4.2 | 60.0 ± 2.8 |  |  |  | activity at 100 µM (dopamine receptors; [16]): 100%; activity at 10 µM (dopamine receptors; [17]): 100%; activity at 1 µM (dopamine receptors; [18]): 100%; activity at 0.1 µM (dopamine receptors; [18]): 100%; inhibition in vivo at 0.5 mg/kg (prolactin [3]; [19]): 0%; inhibition in vivo at 5 mg/kg (prolactin [3]; [19]): 0%
8 | CN1C[C@@H](C(=O)O)C=C2c3cccc4[nH]cc(c34)C[C@H]21 [isolysergic acid] |  |  |  |  |  |  |  |  |  |  |  |  |  | essentially inactive when administered alone | 
9 | CN1C[C@H](C(=O)O)C=C2c3cccc4[nH]cc(c34)C[C@H]21 [lysergic acid] | 13 | 16 | 76.0 ± 9.0 | 73.0 ± 10.0 |  | 60 | 90 | 100 | 100 | 61.0 ± 3.8 | 52.0 ± 6.2 | 0 | 20 | essentially inactive when administered alone | 
10 | CCCCCCCCCCCCCC=CC(O)C(N)COC1OC(CO)C(O)C(O)C1O (centres unmarked) [psychosine, Psychosine or galactosylsphingosine] |  |  | 70.0 ± 6.0 | 61.0 ± 7.0 |  |  |  |  |  | 50.0 ± 5.0 | 41.0 ± 5.0 |  |  |  | activity at 100 µM (dopamine receptors; [16]): 60%; activity at 10 µM (dopamine receptors; [17]): 90%; activity at 1 µM (dopamine receptors; [18]): 100%; activity at 0.1 µM (dopamine receptors; [18]): 100%; inhibition in vivo at 0.5 mg/kg (prolactin [3]; [19]): 14%; inhibition in vivo at 5 mg/kg (prolactin [3]; [19]): 30%
11 | CCCCCCCCCCCCC/C=C/[C@@H](O)[C@@H](N)CO [sphingosine] | 0 |  |  |  |  | 100 | 100 | 100 | 100 |  |  | 0 | 0 |  | Prolactin Inhibition % (prolactin [2]; [7]): 0%; Prolactin Inhibition % (prolactin [3]; [12]): 0%; Prolactin Inhibition % (prolactin [3]; [13]): 0%; Product bound % (^3H-GABA binding on rat cortex membranes) ([5]; test substance 10^-4 M, 100 µM): 100%; Product bound % (^3H-GABA binding on rat cortex membranes) ([5]; test substance 10^-5 M, 10 µM): 100%; Product bound % (^3H-GABA binding on rat cortex membranes) ([5]; test substance 10^-6 M, 1 µM): 100%; Product bound % (^3H-GABA binding on rat cortex membranes) ([5]; test substance 10^-7 M, 0.1 µM): 100%; Product bound % (^3H-GABA binding on rat cortex membranes) ([5]; test substance 10^-8 M, 0.01 µM): 100%; in vitro biological activity (GABA binding), in words ([5]; summary of Table I): no biological activity; Latency of the convulsions measured [1, 20]: 3700 ± 200 s; Number of animals in convulsions [1, 20]: 20/30; Number of dead animals [1, 20]: 9
